The source of these data is patent US20260034192A1 (University of Saskatchewan, priority 2022, published 2026).

In one experiment the test system is alpacas. The experiment is described as follows: Alpaca random day study, single Cetrorelix injection (Example 3). Type of experiment: in vivo. The settings on record: for Duration from treatment to next wave emergence, mean / Variance of duration from treatment to wave emergence (synchrony): alpacas, n = 15, single i/m 1.5 mg on random day of wave. On the procedure: Methods: Ultrasonographic methods and follicular endpoint recording were similar to those described in Example 2. Follicular endpoints were obtained from alpacas (n=15) before and after treatment, therefore each animal acts as its own control. A fixed calendar day (July 16) was pre-assigned for Cetrorelix treatment. Daily transrectal ultrasonography was performed (n=15 alpacas) from May 31 to June 16. This examination period was used to record the variance in wave emergence from a fixed calendar date (May 31) without giving treatment (control period). Animals were at unknown/random day of the wave at the beginning of this 17-day time-window (i.e., longer than one natural inter-wave interval); therefore, all animals were expected to have at least one wave emergence encompassing this period. All alpacas were treated with a single intramuscular injection of 1.5 mg (3 mL) Cetrorelix acetate on July 16 and daily ultrasound examinations continued from the day of treatment until Day 3 after the next (post-treatment) wave emergence (treatment period). Synchrony of wave emergence was compared between the control period and the treatment period.
Statistical analyses: A Proc Mixed repeated measures analysis of variance (SAS version 9.4) was performed to compare serial data (follicle size and follicle numbers changes over days) and ANOVA or paired T-test were used for single-point numerical measurements. Count data were compared using Fisher's Exact test. Synchrony of the wave emergence was compared using Barlett's and Levene's tests of homogeneity of the variance.

Experiment [1] deals with GnRH-induced plasma LH levels and ovulation. The experiment is described as follows: GnRH challenge in heifers pre-treated with GnRH antagonists: plasma LH and ovulation (Example 10). It counts as in vivo, cattle. The note with it: for Plasma LH response to GnRH challenge: heifers pre-treated with antagonist 60 minutes before GnRH injection. On the procedure:
Methods: Pubertal heifers (n=10) with a functional CL were selected at the Federal University of Santa Maria. Heifers were administered an intramuscular (i/m) injection of prostaglandin F2a analog (PGF; Lutalyse 5 ml or Estrumate 2 ml) to induce CL regression. Heifers were randomly placed into 4 treatment groups at the time of PGF injection: Trt1 (n=2, 3 mg of Abarelix); Trt2 (n=2, 3 mg of Degarelix), Trt3 (n=2, 3 mg of Relugolix) and Trt 4 (n=4; Cetrorelix 3 mg). Heifers were treated with these GnRH antagonists 1.5 days (36 hr) after the PGF injection and the GnRH antagonist treatment time point was defined as −60 mins. Heifers were treated with GnRH ([…] of Fertagyl i/m) at 0 mins to induce ovulation. Jugular venipuncture plasma samples were collected every 60 minutes for 3 hours (from −60 min to 120 minutes, with t=0 min when GnRH is administered). Plasma samples were kept at 4C overnight and LH analysis was performed the next day using a bovine-specific ELISA commercial kit. Transrectal ultrasonography was conducted to the time of GnRH injection (Time 0 hr) and 2 days later (48 hr after GnRH injection) to record the size of dominant follicle and to detect ovulation after treatment.

Experiment [2] has as its system pubertal Hereford-cross beef heifers. Briefly: Cetrorelix in luteal versus preovulatory phase, hCG ovulation challenge in heifers (Example 6). The note with it: high and low progesterone, 3 mg i/m. It counts as in vivo, cattle. On the procedure: Experimental design: The study was conducted on pubertal Hereford-cross beef heifers (n=24) at the U. Sask. Livestock and Forage Centre of Excellence (LFCE) using a 2×2 factorial design (Table 15). Initial transrectal ultrasonography was performed to confirm post-pubertal or post-partum cyclicity by the presence or absence of a corpus luteum (CL). Animals with a CL were weighed and treated with prostaglandin F2a analog as in Example 4 and monitored by ultrasonography to detect ovulation. Day of ovulation was considered the day of wave emergence (defined as Day 0).
On the day of ovulation, heifers were randomized into 4 groups. Those in the preovulatory groups were given prostaglandin on Days 4 and 4.5 of the wave while those in the luteal groups were allowed to maintain the CL (i.e., no prostaglandin treatment). Treatments was given as outlined in Table 16 and schematic time line FIG. 8. Cetrorelix groups were given 3 mg cetrorelix i/m on Day 5. All animals were treated with hCG (Chorulon, 1500 IU, im) on Day 7 of the wave (i.e., 48 hr after Cetrorelix/saline treatment) to determine the ovulatory potential of the dominant follicle.
Blood samples were taken 24 hr after cetrorelix or no treatment (control groups) for measurement of plasma concentrations of LH and progesterone. Data was analyzed in a similar manner to Example 4.

The mark [3] stands for this setting: individual heifers, 3 mg antagonist 60 min before GnRH.
[4] abbreviates: individual heifers, after GnRH injection, 3 mg antagonist at −60 min.

Several values for one entry are separate records, joined by “and”; a condition that tells them apart may be missing. Identical values can stand only once. Entries after “also recorded” stand apart in the source; their conditions may differ. Square brackets hold non-standard residues; d marks the D form. Peptide text beside a SMILES is read from it. dPhe(4-Cl) = N[C@H](Cc1ccc(Cl)cc1)C(=O)O; d2Nal = N[C@H](Cc1ccc2ccccc2c1)C(=O)O; dCit = NC(=O)NCCC[C@@H](N)C(=O)O; d3Pal = N[C@H](Cc1cccnc1)C(=O)O

Regarding `CC(=O)N[C@H](Cc1ccc2ccccc2c1)C(=O)N[C@H](Cc1ccc(Cl)cc1)C(=O)N[C@H](Cc1cccnc1)C(=O)N[C@@H](CO)C(=O)N[C@@H](Cc1ccc(O)cc1)C(=O)N[C@H](CCCNC(N)=O)C(=O)N[C@@H](CC(C)C)C(=O)N[C@@H](CCCNC(=N)N)C(=O)N1CCC[C@H]1C(=O)N[C@H](C)C(N)=O` [Cetrorelix, N-acetyl-3-(2-naphthyl)-D-alanyl-4-chloro-D-phenylalanyl-3-(3-pyridyl)-D-alanyl-L-seryl-L-tyrosyl-D-citrullyl-L-leucyl-L-arginyl-L-prolyl-D-alaninamide] (Ac-[d2Nal][dPhe(4-Cl)][d3Pal]SY[dCit]LRP[dA]-NH2), the “Duration from treatment to next wave emergence, mean” value in the experiment on alpacas was 5.33 ± 0.70 days and 5.33 days; with alpacas (listed as Cetro), 5.33 days; in the experiment on alpacas (listed as cetrorelix) it was “about 5.33±0.70 days”. The results for the “Variance of duration from treatment to wave emergence (synchrony)” value with alpacas and with alpacas (listed as Cetro) were 7.38 and 7.381, respectively. Moreover, the “Duration from Treatment to Wave Emergence” value in the experiment with alpacas (individual alpacas, single i/m injection of 1.5 mg Cetrorelix on random day of wave) was 11 days and 3 days (2×) and 4 days (6×) and 9 days and 1 days and 6 days and 8 days (2×) and 7 days. The “Plasma LH response to GnRH challenge” value in experiment [1] was “did not register an increase in LH”; in experiment [1] (listed as cetrorelix) it was “LH levels remained unchanged; also recorded: block the GnRH-induced LH release”. For the same compound, the “Ovulation (Yes/No) within 48 hr of GnRH treatment” value in experiment [1] (heifers, 3 mg antagonist 60 min before GnRH) was “No”; in experiment [1] (heifers, 3 mg antagonist 60 min before GnRH, listed as cetrorelix) it was “prevent GnRH-induced ovulations”. Further, the “Plasma LH concentration at 60 minute, group Mean” value in experiment [1] (heifers, after GnRH injection) is reported as 12.83 mIU/ml. Moreover, the “Plasma LH concentration at 120 minute, group Mean” value in experiment [1] (heifers, after GnRH injection) is recorded as 12.18 mIU/ml. The “Plasma LH concentration at −60 minute, group Mean” value in experiment [1] (heifers, time of 3 mg GnRH antagonist injection) was determined as 11.63 mIU/ml. For the same compound, the “Plasma LH concentration at 0 minute, group Mean” value in experiment [1] (heifers, time of GnRH injection) worked out at 10.07 mIU/ml. In addition, the “Dominant follicle diameter (mm) 48 hr after GnRH Injection” value in experiment [1] (setting [3]) is 9.8 mm and 12 mm. Also, the “Dominant follicle diameter (mm) at GnRH injection” value in experiment [1] (setting [3]) is 7.5 mm and 10.5 mm. Also, in experiment [1] (setting [4]), the “Plasma LH concentration at 60 minute” value was 18.33 mIU/ml and 22.72 mIU/ml and 5.12 mIU/ml and 5.15 mIU/ml. In experiment [1] (setting [4]), the “Plasma LH concentration at 120 minute” value is 23.74 mIU/ml and 15.04 mIU/ml and 4.60 mIU/ml and 5.32 mIU/ml. The “Plasma LH concentration at −60 minute” value in experiment [1] (individual heifers, time of 3 mg GnRH antagonist injection, 60 mins before GnRH) is 24.29 mIU/ml and 12.03 mIU/ml and 5.24 mIU/ml and 4.96 mIU/ml. Besides, the “Plasma LH concentration at 0 minute” value in experiment [1] (individual heifers, time of GnRH injection, 3 mg antagonist at −60 min) was 18.10 mIU/ml and 12.23 mIU/ml and 5.29 mIU/ml and 4.66 mIU/ml. Also, the “Time for which dominant/pre-ovulatory follicle maintains ovulatory potential after cetrorelix treatment” value in experiment [2] is listed as “at least 48 hr”.
